The NIST ThermoML archive (doi:10.1016/j.fluid.2007.08.010)

Assay: xn = mol fraction of the nth substance listed
Conditions: Liquid, Falling or rolling sphere viscometry

CCCCCCCCCCCCCC [tetradecane] + c1ccccc1
viscosity [mPa·s]
Conditions	690 kPa	5000 kPa	10000 kPa	20000 kPa	30000 kPa	40000 kPa	50000 kPa	60000 kPa
313.2 K, x2 = 0.179	1.393	1.461	1.538	1.695	1.86	2.036	2.224	2.434
313.2 K, x2 = 0.436	1.103	1.159	1.223	1.347	1.473	1.6	1.729	1.866
313.2 K, x2 = 0.602	0.905	0.955	1.011	1.118	1.225	1.329	1.432	1.535
313.2 K, x2 = 0.798	0.679	0.712	0.753	0.835	0.916	1	1.081	1.16
333.2 K, x2 = 0.179	1.045	1.098	1.157	1.273	1.389	1.515	1.657	1.846
333.2 K, x2 = 0.436	0.838	0.884	0.935	1.037	1.135	1.228	1.319	1.421
333.2 K, x2 = 0.602	0.688	0.728	0.775	0.862	0.946	1.032	1.115	1.216
333.2 K, x2 = 0.798	0.528	0.557	0.592	0.661	0.73	0.797	0.863	0.927
353.2 K, x2 = 0.179	0.819	0.855	0.904	0.996	1.08	1.168	1.278	1.391
353.2 K, x2 = 0.436	0.614	0.662	0.705	0.793	0.883	0.956	1.032	1.116
353.2 K, x2 = 0.602	0.537	0.566	0.601	0.668	0.739	0.809	0.878	0.959
353.2 K, x2 = 0.798	0.421	0.443	0.469	0.523	0.578	0.634	0.69	0.745
373.2 K, x2 = 0.179	0.596	0.635	0.678	0.765	0.849	0.926	1.001	1.07
373.2 K, x2 = 0.436	0.485	0.515	0.549	0.62	0.688	0.753	0.819	0.879
373.2 K, x2 = 0.602	0.43	0.452	0.477	0.533	0.59	0.646	0.704	0.761
373.2 K, x2 = 0.798	0.356	0.371	0.389	0.427	0.467	0.509	0.553	0.598
393.2 K, x2 = 0.179	0.466	0.495	0.531	0.601	0.67	0.738	0.804	0.868
393.2 K, x2 = 0.436	0.394	0.419	0.445	0.496	0.554	0.61	0.662	0.717
393.2 K, x2 = 0.602	0.347	0.368	0.39	0.436	0.479	0.524	0.565	0.604
393.2 K, x2 = 0.798	0.307	0.32	0.336	0.367	0.398	0.432	0.466	0.499
